Our source for the Ki and Km values is ChEMBL document CHEMBL2074437, “Expression and transport properties of the human ileal and renal sodium-dependent bile acid transporter” (Am J Physiol, 1998).

Assay type in all cases: functional, cell-based
The target of series [1] is T1, Ileal sodium/bile acid cotransporter (Homo sapiens, UniProt Q12908).
T1 sequence (Q12908 whole entry): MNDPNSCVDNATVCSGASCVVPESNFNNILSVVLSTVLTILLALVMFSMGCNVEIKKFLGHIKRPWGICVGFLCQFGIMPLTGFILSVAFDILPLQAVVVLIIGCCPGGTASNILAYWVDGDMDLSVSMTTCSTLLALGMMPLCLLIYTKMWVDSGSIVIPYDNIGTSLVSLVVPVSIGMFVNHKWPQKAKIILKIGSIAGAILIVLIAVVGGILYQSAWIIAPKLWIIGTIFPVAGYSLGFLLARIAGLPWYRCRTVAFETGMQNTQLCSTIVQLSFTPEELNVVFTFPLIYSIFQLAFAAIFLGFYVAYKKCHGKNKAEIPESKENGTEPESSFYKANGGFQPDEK
The series is described as follows: TP_TRANSPORTER: inhibition of Taurocholate uptake in ASBT-expressing COS cells.

Substrate in series [2]: C[C@H](CCC(=O)NCC(=O)O)[C@H]1CC[C@H]2[C@@H]3[C@H](O)C[C@@H]4C[C@H](O)CC[C@]4(C)[C@H]3CC[C@]12C
Nature of the series: (§1) TP_TRANSPORTER: uptake in ASBT-expressing COS cells.

Substrate in series [3]: C[C@H](CCC(=O)NCC(=O)O)[C@H]1CC[C@H]2[C@@H]3[C@@H](O)C[C@@H]4C[C@H](O)CC[C@]4(C)[C@H]3CC[C@]12C
Described as §1.

Substrate in series [4]: C[C@H](CCC(=O)NCC(=O)O)[C@H]1CC[C@H]2[C@@H]3CC[C@@H]4C[C@H](O)CC[C@]4(C)[C@H]3C[C@H](O)[C@]12C
The description is as §1.

The Ki is a dissociation constant, usually derived from enzyme kinetics or from competition with a known ligand. Lower therefore signals a stronger hold on the target. `C[C@H](CCC(=O)O)[C@H]1CC[C@H]2[C@@H]3[C@H](O)C[C@@H]4C[C@H](O)CC[C@]4(C)[C@H]3CC[C@]12C` [CHENODIOL] registered a Ki in series [1] of 3.3 µM.

Turning to `C[C@H](CCC(=O)O)[C@H]1CC[C@H]2[C@@H]3CC[C@@H]4C[C@H](O)CC[C@]4(C)[C@H]3C[C@H](O)[C@]12C` [DEOXYCHOLIC ACID], the Ki in series [1] and in series [1] (cos) was 6.3 µM in each case.

`O=C1OC(c2ccc(O)c(S(=O)(=O)O)c2)(c2ccc(O)c(S(=O)(=O)O)c2)c2c(Br)c(Br)c(Br)c(Br)c21` [SULFOBROMOPHTHALEIN SODIUM] had a Ki in series [1] of 144 µM.

`C[C@H](CCC(=O)NCCS(=O)(=O)O)[C@H]1CC[C@H]2[C@@H]3[C@H](O)C[C@@H]4C[C@H](O)CC[C@]4(C)[C@H]3CC[C@]12C` [TAUROCHENODEOXYCHOLATE]: the affinity in series [1] corresponds to a Ki of 6.1 µM.

`C[C@H](CCC(=O)NCCS(=O)(=O)O)[C@H]1CC[C@H]2[C@@H]3CC[C@@H]4C[C@H](O)CC[C@]4(C)[C@H]3C[C@H](O)[C@]12C` [TAURODEOXYCHOLIC ACID] had a Ki in series [1] of 17.2 µM.

The molecule `C[C@H](CCC(=O)NCCS(=O)(=O)O)[C@H]1CC[C@H]2[C@@H]3[C@@H](O)C[C@@H]4C[C@H](O)CC[C@]4(C)[C@H]3CC[C@]12C` [TAURURSODIOL] came in with an inhibition constant (Ki) in series [1] of 28 µM.

The molecule `C[C@H](CCC(=O)O)[C@H]1CC[C@H]2[C@@H]3[C@@H](O)C[C@@H]4C[C@H](O)CC[C@]4(C)[C@H]3CC[C@]12C` [URSODIOL] returned a Ki in series [1] of 75 µM.

B1: Ileal sodium/bile acid cotransporter (Homo sapiens) (protein)
chain: T1 sequence (Q12908 whole entry)
A word on the Km: it is the substrate concentration at which the rate is half of its maximum. On to B1, for which the Km in series [2] is 5.7 µM; in series [3], 4.1 µM; in series [4] it was 2 µM.
